From article PMC4077824, “Conserved Prosegment Residues Stabilize a Late-Stage Folding Transition State of Pepsin Independently of Ground States” (PLoS ONE, 2014)
“Also recorded” adds a separate entry of the source. Where no end group is shown, it is not given here.

What was measured:
native pepsin (Np) = target: T1, native pepsin (Np) (Sus scrofa, UniProt P00791); assay: PS binding to Np (competitive inhibition of KPAEFF(NO2)AL hydrolysis); assay type: biochemical, porcine; conditions: for Ki: 10 nM Np, 20 mM acetic acid/NaOH pH 5.3, 100 mM NaCl, 5 min incubation, substrate KPAEFF(NO2)AL 0.1 mM, absorbance 300 nm, competitive model, mean ± SD from non-linear curve fitting, 3-5 measurements, read-out: K i (PS-Np inhibition constant); for Ki / ΔΔGPS-Np (change in PS-Np binding energy upon mutation): 20°C; for ΔΔGPS-Np (change in PS-Np binding energy upon mutation): from K i, pH 5.3, relative to WT, ± SD by propagation of errors; for effect on affinity for Np / PS-Np stability (in words): pH 5.3, 20°C, PS inhibition of Np, compared with PSwt
T1 construct: Only the R13 and K36 side-chains of the PS form hydrogen bonds with the mature pepsin domain; purchased Sigma (St. Louis, MO, USA)
Experimental: PS binding to Np was determined by using the PS as a competitive inhibitor and measuring the inhibition constant, K i. Hydrolysis of the KPAEFF(NO2)AL substrate was measured by following the decrease in absorbance at 300 nm using a Biochrom Ultrospec 3100pro UV-Vis spectrophotometer (Biochrom Ltd., Cambridge, England) in 20 mM acetic acid/NaOH buffer, pH 5.3, containing 100 mM NaCl. Np samples were diluted to 10 nM and incubated with PS for 5 min at 20°C and assayed for activity. The reaction rates were normalized to the activity in the absence of PS and the data fit using the competitive inhibitor form of the Michaelis-Menten equation [drawing 2] (2) where v0 is the initial reaction rate, V max is the maximum reaction rate, [S] is the substrate concentration (fixed at 0.1 mM), [I] is the inhibitor concentration, and K M is the Michaelis constant.
(§1) The change in stability of the folding transition state upon mutation was calculated using [drawing 3] (3) where k f, wt and k f, mut are the PS-catalyzed folding rate constants of the wild-type and mutant PS peptides. The change in equilibrium stability of PS-Np relative to PS-Rp upon mutation of the PS (ΔΔGPS(Np-Rp)) was determined as the difference between the changes in binding energies, using [drawing 4] (4) and [drawing 5] (5)
(§2) Here, ΔΔGbind refers to either ΔΔGPS-Rp, determined from K d values, or ΔΔGPS-Np, determined from K i values. The Φ-value for each mutant corresponds to eq 3 divided by eq 5. Additional details are included in the supporting information section (Text S1).

refolded pepsin (Rp) [1] = target: T2, refolded pepsin (Rp) (Sus scrofa, UniProt P00791); assay: PS-catalyzed folding of Rp to Np (recovery of Np activity); assay type: biochemical, porcine; conditions: for k f (PS-catalyzed folding rate constant): 1 µM Rp, 30 µM PS, pH 5.3 (20 mM acetic acid/NaOH, 100 mM NaCl), Np activity assayed at pH 1.2, 25°C with KPAEFF(NO2)AL, monoexponential fit, mean ± SD from non-linear curve fitting, 3-5 measurements; for k f (PS-catalyzed folding rate constant) / ΔΔG^‡ (change in folding activation energy upon mutation): 15°C; for ΔΔG^‡ (change in folding activation energy upon mutation): from k f, pH 5.3, relative to WT, ± SD by propagation of errors
T2 construct: Only the R13 and K36 side-chains of the PS form hydrogen bonds with the mature pepsin domain; purchased Sigma (St. Louis, MO, USA)
Experimental: PS-catalyzed folding of Rp to Np
PS-catalyzed folding was carried out by combining 1 µM Rp and 30 µM PS, in a volume of 100 µl, at pH 5.3 (20 mM acetic acid/NaOH with 100 mM NaCl) and 15°C. Aliquots were taken at several time intervals, diluted 20-fold in 50 mM phosphoric acid buffer, pH 1.2, incubated for 5 min at 25°C and assayed for Np activity using the KPAEFF(NO2)AL substrate. The recovery of Np activity with time, t, was fit with a monoexponential function (y = a – bexp(–k f t)) to obtain the PS-catalyzed folding rate constant, k f. Under these conditions, PS binding to Rp reached equilibrium within the dead-time of mixing (<8 sec), as judged by Trp-fluorescence.
as §1
Temperature dependence of PS-catalyzed folding
PS-catalyzed folding could be measured only up to 15 °C for PSwt, as the reaction was too fast at higher temperatures. […] Given the linear temperature dependence it could be reasonably assumed that changes in activation energies (mutant – wild-type) would be unchanged from 15 °C to 20 °C, and so could be compared directly with changes in binding energies (wild-type – mutant) that were determined at 20 °C.

refolded pepsin (Rp) [2] = target: T2, refolded pepsin (Rp); assay: PS binding to Rp (Trp-fluorescence); set-up: species or system porcine; conditions: for Kd: 0.6-1.2 µM Rp, 20 mM acetic acid/NaOH pH 5.3 without added NaCl, ≥10 min, Trp-fluorescence ex 295 nm, em 315 nm, mean ± SD from non-linear curve fitting, 3-5 measurements, read-out: K d (PS-Rp dissociation constant); for Kd / ΔΔGPS-Rp (change in PS-Rp binding energy upon mutation): 20°C; for ΔΔGPS-Rp (change in PS-Rp binding energy upon mutation): from K d, pH 5.3, relative to WT, ± SD by propagation of errors; for effect on affinity for Rp / PS-Rp stability (in words): pH 5.3, 20°C, compared with PSwt
Experimental: The change in intrinsic tryptophan fluorescence of pepsin was used to measure the binding of PS to Rp and to determine the dissociation constant, K d. Rp solutions were diluted to between 0.6 and 1.2 µM in 20 mM acetic acid/NaOH buffer, pH 5.3, and mixed with various amounts of PS. After incubating the samples at 20°C for ≥10 minutes, the intrinsic tryptophan fluorescence was measured using a PTI spectrofluorophotometer (Photon Technology International, Inc., Birmingham NJ, USA), with excitation at 295 nm and emission measured at 315 nm. The change in fluorescence, ΔF i, at each PS concentration, [PS], was normalized relative to the maximum change, ΔF max, and fit according to [drawing 1] (1) where [Rp] is the total concentration of pepsin.
PS binding to Rp was measured in buffer without added 100 mM NaCl in order to obtain more accurate measurements of K d, owing to a larger change in signal in the absence of salt. Additionally, without added 100 mM NaCl it was possible to isolate the PS-Rp binding step from the catalyzed folding step thereby improving the determination of K d.
as §1, §2

T2 sequence (P00791 60-385): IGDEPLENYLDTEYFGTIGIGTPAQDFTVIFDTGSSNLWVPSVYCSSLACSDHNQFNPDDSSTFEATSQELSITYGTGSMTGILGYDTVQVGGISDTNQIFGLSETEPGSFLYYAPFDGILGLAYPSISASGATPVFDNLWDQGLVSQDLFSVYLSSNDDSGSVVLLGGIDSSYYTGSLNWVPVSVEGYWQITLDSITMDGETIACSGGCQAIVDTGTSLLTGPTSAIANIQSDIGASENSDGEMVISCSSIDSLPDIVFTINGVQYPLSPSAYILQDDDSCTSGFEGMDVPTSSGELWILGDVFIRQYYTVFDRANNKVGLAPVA
T1 sequence (P00791 60-385): as above

Row | Sequence | Ki (native pepsin (Np)) [nM] | k f (PS-catalyzed folding rate constant) (refolded pepsin (Rp) [1]) [min⁻¹] | Kd (refolded pepsin (Rp) [2]) [nM] | ΔΔGPS-Np (change in PS-Np binding energy upon mutation) (native pepsin (Np)) [kcal/mol] | effect on affinity for Np / PS-Np stability (in words) (native pepsin (Np)) | ΔΔG^‡ (change in folding activation energy upon mutation) (refolded pepsin (Rp) [1]) [kcal/mol] | ΔΔGPS-Rp (change in PS-Rp binding energy upon mutation) (refolded pepsin (Rp) [2]) [kcal/mol] | effect on affinity for Rp / PS-Rp stability (in words) (refolded pepsin (Rp) [2]) | effect on rate of PS-catalyzed folding (in words) (refolded pepsin (Rp) [1]; pH 5.3, 15°C, compared with PSwt)
1 | LVKVPLVRKKSLRQNLIKNGKLKDFLKTHKHNPASKYFPEAAAL [WT] | 64.8 ± 11.4 | 1.42 ± 0.34 | 310 ± 30 | – | – | – | – | – | –
2 | LVKAPLVRKKSLRQNLIKNGKLKDFLKTHKHNPASKYFPEAAAL [V4A] | 50.9 ± 6.9 | 0.27 ± 0.03 | 1190 ± 230 | -0.14 ± 0.13 | very small stabilizing effect on PS-Np; also recorded: stabilizing to the native state | 0.94 ± 0.15 | 0.79 ± 0.12 | relatively large destabilizing effect on PS-Rp | –
3 | LVKVPLVRKKSLRQNLAKNGKLKDFLKTHKHNPASKYFPEAAAL [I17A] | 394 ± 65.1 | 1.40 ± 0.26 | 210 ± 90 | 1.05 ± 0.14 | largest reduction in affinities for Np; also recorded: one of the most destabilizing mutations to the PS-Np complex | 0.01 ± 0.18 | -0.21 ± 0.24 | negligible effect on PS-Rp binding; also recorded: negligible effect on PS-Rp and PS-TS stability | no effect
